Laboratory results from paper PMC5700923, “Second messenger analogues highlight unexpected substrate sensitivity of CD38: total synthesis of the hybrid “L-cyclic inosine 5′-diphosphate ribose”” (Scientific Reports, 2017).
Blank lines part the entries; values can stand above or below the compound they belong to.

Key:
Aplysia cyclase = molecular target: T1, Aplysia cyclase (Aplysia californica, UniProt P29241); experiment: X-ray crystallography, […] cIDPR (authors' unpublished data, Supplementary Figure S2); format: binding
T1 construct: wild-type
T1 sequence (P29241 25-282): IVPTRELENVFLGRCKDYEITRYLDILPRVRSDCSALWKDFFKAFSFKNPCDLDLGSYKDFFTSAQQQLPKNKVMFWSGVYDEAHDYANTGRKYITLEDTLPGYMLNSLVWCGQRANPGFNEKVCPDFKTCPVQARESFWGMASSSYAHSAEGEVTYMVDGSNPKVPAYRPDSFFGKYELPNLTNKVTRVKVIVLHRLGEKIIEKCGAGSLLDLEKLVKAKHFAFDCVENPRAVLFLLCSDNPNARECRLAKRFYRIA

CD38 (shCD38) [1] = molecular target: T2, CD38 (shCD38) (Homo sapiens, UniProt P28907); experiment: inhibition of cADPR hydrolysis, fluorimetric cycling assay; format: biochemical; details: read-out: L-Ribose / IC50
T2 construct: human CD38 catalytic domain (shCD38)
T2 sequence (P28907 45-300 limits assumed): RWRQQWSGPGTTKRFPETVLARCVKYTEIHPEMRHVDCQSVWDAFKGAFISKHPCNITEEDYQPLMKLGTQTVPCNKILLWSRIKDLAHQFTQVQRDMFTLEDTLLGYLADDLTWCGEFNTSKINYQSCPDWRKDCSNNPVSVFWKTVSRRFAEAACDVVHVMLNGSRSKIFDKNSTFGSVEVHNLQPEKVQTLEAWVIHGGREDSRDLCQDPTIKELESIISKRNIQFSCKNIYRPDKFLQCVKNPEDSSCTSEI

CD38 (shCD38) [2] = molecular target: T2, CD38 (shCD38); experiment: inhibition of cADPR hydrolysis, fluorimetric cycling assay; also hydrolysed by shCD38 (RP-HPLC); format: biochemical; details: read-out: L-Ribose / IC50

Compound: O=c1c2ncn3c2ncn1[C@@H]1O[C@H](COP(=O)(O)OP(=O)(O)OC[C@H]2O[C@@H]3[C@H](O)[C@@H]2O)[C@@H](O)[C@H]1O [compound 2, cIDPR]
- ligand species seen in crystal structure (Aplysia cyclase): both linear IDPR and the cyclic N1-cIDPR are present and close to each other, with cIDPR in an upside-down orientation

- IC50 (CD38 (shCD38) [1]): 21 ± 2 µM
Compound: Nc1nc2c(=O)n3cnc2n1[C@@H]1O[C@H](COP(=O)(O)OP(=O)(O)OC[C@@H]2O[C@H]3[C@@H](O)[C@H]2O)[C@@H](O)[C@H]1O [compound 7, 8-NH2-L-cIDPR]

- IC50 (CD38 (shCD38) [2]): 526 ± 36 µM
Compound: O=c1c2ncn3c2ncn1[C@H]1O[C@@H](COP(=O)(O)OP(=O)(O)OC[C@H]2O[C@@H]3[C@H](O)[C@@H]2O)[C@H](O)[C@@H]1O [compound 5, L-cIDPR]
